Laboratory results reported in ChEMBL document CHEMBL4043145, “Pyridine-pyrimidine amides that prevent HGF-induced epithelial scattering by two distinct mechanisms” (Bioorg Med Chem Lett, 2017).

Columns and labels:
[1] = Antimigratory activity against human SW.71 cells at 10 uM after 18 hrs by crystal violet staining-based assay relative to control; assay type: functional; details: SW.71, 18 h
MDCK-II = assay: Antimigratory activity against MDCK2 cells assessed as inhibition of HGF-induced cell scattering at 1 uM pretreated for 18 hrs followed by HGF addition measured after 20 to 24 hrs by crystal violet staining-based assay relative to control; assay type: functional; details: Canis lupus familiaris
Hs-578T = assay: Antiproliferative activity against human Hs 578T cells; assay type: functional
A549 [2] = assay: Antiproliferative activity against human A549 cells; assay type: functional
IGROV-1 = assay: Antiproliferative activity against human IGROV1 cells; assay type: functional
SR = assay: Antiproliferative activity against human SR cells; assay type: functional
MIA PaCa-2 = assay: Antiproliferative activity against human MIAPaCa2 cells; assay type: functional
SF-539 = assay: Antiproliferative activity against human SF539 cells; assay type: functional
SK-OV-3 = assay: Antiproliferative activity against human SKOV3 cells; assay type: functional
HOP-62 = assay: Antiproliferative activity against human HOP62cells; assay type: functional
A498 = assay: Antiproliferative activity against human A498 cells; assay type: functional
NCI/ADR-RES = assay: Antiproliferative activity against human NCI/ADR-RES cells; assay type: functional
MDA-MB-231 = assay: Antiproliferative activity against human MDA-MB-231/ATCC cells; assay type: functional
KM12 = assay: Antiproliferative activity against human KM12 cells; assay type: functional
[3] = Antiproliferative activity against human NCI-H660 cells; assay type: functional
NCI-H23 = assay: Antiproliferative activity against human NCI-H23 cells; assay type: functional
SK-UT-1 = assay: Antiproliferative activity against human SK-UT-1 cells; assay type: functional
UO-31 = assay: Antiproliferative activity against human UO31 cells; assay type: functional
SW-620 = assay: Antiproliferative activity against human SW620 cells; assay type: functional
A2780 = assay: Antiproliferative activity against human A2780 cells; assay type: functional, cell-based
BT-20 = assay: Antiproliferative activity against human BT20 cells; assay type: functional
UACC-62 = assay: Antiproliferative activity against human UACC62 cells; assay type: functional
NCI-H460 = assay: Antiproliferative activity against human NCI-H460 cells; assay type: functional
[4] = Antiproliferative activity against human HER218 cells; assay type: functional
RPMI-8226 = assay: Antiproliferative activity against human RPMI8226 cells; assay type: functional
NCI-H322M = assay: Antiproliferative activity against human NCI-H322M cells; assay type: functional
ACHN = assay: Antiproliferative activity against human ACHN cells; assay type: functional
MDA-MB-468 = assay: Antiproliferative activity against human MDA-MB-468 cells; assay type: functional
786-0 = assay: Antiproliferative activity against human 786-0 cells; assay type: functional
T98G = assay: Antiproliferative activity against human T98G cells; assay type: functional
SK-MEL-2 = assay: Antiproliferative activity against human SK-MEL-2 cells; assay type: functional
PANC-1 = assay: Antiproliferative activity against human PANC1 cells; assay type: functional
OVCAR-4 = assay: Antiproliferative activity against human OVCAR4 cells; assay type: functional
NCI-H522 = assay: Antiproliferative activity against human NCI-H522 cells; assay type: functional
MDA-MB-435 = assay: Antiproliferative activity against human MDA-MB-435 cells; assay type: functional
U-87 MG = assay: Antiproliferative activity against human U87MG cells; assay type: functional, U-87MG ATCC
MCF7 [5] = assay: Antiproliferative activity against human MCF7 cells at 10 uM relative to control; assay type: functional, cell-based
RXF 393 = assay: Antiproliferative activity against human RXF393 cells; assay type: functional
PC-3 = assay: Antiproliferative activity against human PC3 cells; assay type: functional
HCT-116 = assay: Antiproliferative activity against human HCT116 cells; assay type: functional
OVCAR-8 = assay: Antiproliferative activity against human OVCAR8 cells; assay type: functional
HL-60(TB) = assay: Antiproliferative activity against human HL-60(TB) cells; assay type: functional
OVCAR-3 = assay: Antiproliferative activity against human OVCAR3 cells; assay type: functional
HCC 2998 = assay: Antiproliferative activity against human HCC2998 cells; assay type: functional
HOP-92 = assay: Antiproliferative activity against human HOP92 cells; assay type: functional
Malme-3M = assay: Antiproliferative activity against human MALME-3M cells; assay type: functional
A549 [6] = assay: Antiproliferative activity against human A549/ATCC cells; assay type: functional
SNB-19 = assay: Antiproliferative activity against human SNB19 cells; assay type: functional
M14 = assay: Antiproliferative activity against human M14 cells; assay type: functional
U-251 = assay: Antiproliferative activity against human U251 cells; assay type: functional
DU-145 = assay: Antiproliferative activity against human DU145 cells; assay type: functional
LOX IMVI = assay: Antiproliferative activity against human LOXIMVI cells; assay type: functional
HPAC = assay: Antiproliferative activity against HPAC; assay type: functional; details: Homo sapiens
CCRF-CEM = assay: Antiproliferative activity against human CCRF-CEM cells; assay type: functional
NCI-H1975 = assay: Antiproliferative activity against human NCI-H1975 cells; assay type: functional
VCaP = assay: Antiproliferative activity against human VCaP cells; assay type: functional
K562 = assay: Antiproliferative activity against human K562 cells; assay type: functional
MFE-280 = assay: Antiproliferative activity against human MFE280 cells; assay type: functional
SW480 = assay: Antiproliferative activity against human SW480 cells; assay type: functional
SN12C = assay: Antiproliferative activity against human SN12C cells; assay type: functional
AN3-CA = assay: Antiproliferative activity against human AN3CA cells; assay type: functional
HEC-1-A = assay: Antiproliferative activity against human Hec1A cells; assay type: functional
MFE-296 = assay: Antiproliferative activity against human MFE296 cells; assay type: functional
COLO 205 = assay: Antiproliferative activity against human COLO205 cells; assay type: functional
SK-MEL-5 = assay: Antiproliferative activity against human SK-MEL-5 cells; assay type: functional
MOLT-4 = assay: Antiproliferative activity against human MOLT4 cells; assay type: functional
T47D = assay: Antiproliferative activity against human T47D cells; assay type: functional
HT-29 = assay: Antiproliferative activity against human HT-29 cells; assay type: functional
MCF7 [7] = assay: Antiproliferative activity against human MCF7 cells; assay type: functional
CAKI-1 = assay: Antiproliferative activity against human Caki1 cells; assay type: functional
NCI-H226 = assay: Antiproliferative activity against human NCI-H226 cells; assay type: functional
RL95-2 = assay: Antiproliferative activity against human RL95-2 cells; assay type: functional
HepG2 = assay: Antiproliferative activity against human HepG2 cells; assay type: functional
HCT-15 = assay: Antiproliferative activity against human HCT15 cells; assay type: functional
LNCaP = assay: Antiproliferative activity against human LNCAP cells; assay type: functional
SF-268 = assay: Antiproliferative activity against human SF268 cells; assay type: functional
TK-10 = assay: Antiproliferative activity against human TK10 cells; assay type: functional
CWR22R = assay: Antiproliferative activity against human 22Rv1 cells; assay type: functional
OVCAR-5 = assay: Antiproliferative activity against human OVCAR5 cells; assay type: functional
SF-295 = assay: Antiproliferative activity against human SF295 cells; assay type: functional

Cc1nc(NC(=O)c2cncnc2)ccc1I
inhibition at 10 µM [1]: 80%
inhibition at 1 µM (MDCK-II): 249%

O=C(Nc1ccc(-c2ccccc2)cn1)c1cncnc1
GI50 (Hs-578T): 160 nM
GI50 (A549 [2]): 204 nM
GI50 (IGROV-1): 869 nM
GI50 (SR): 42 nM
GI50 (MIA PaCa-2): 194 nM
GI50 (SF-539): 110 nM
GI50 (SK-OV-3): 315 nM
GI50 (HOP-62): > 10000 nM
GI50 (A498): 48 nM
GI50 (NCI/ADR-RES): 40 nM
GI50 (MDA-MB-231): 256 nM
GI50 (KM12): 39 nM
GI50 [3]: 135 nM
GI50 (NCI-H23): 660 nM
GI50 (SK-UT-1): 55 nM
GI50 (UO-31): 2110 nM
GI50 (SW-620): 43 nM
EC50 (A2780): 74 nM
GI50 (A2780): 40 nM
GI50 (BT-20): 342 nM
GI50 (UACC-62): 69 nM
GI50 (NCI-H460): 41 nM
GI50 [4]: 72 nM
GI50 (RPMI-8226): 91 nM
GI50 (NCI-H322M): 512 nM
GI50 (ACHN): 271 nM
GI50 (MDA-MB-468): 29 nM
GI50 (786-0): 591 nM
GI50 (T98G): 153 nM
GI50 (SK-MEL-2): 53 nM
GI50 (PANC-1): 212 nM
GI50 (OVCAR-4): > 10000 nM
GI50 (NCI-H522): 34 nM
GI50 (MDA-MB-435): 22 nM
GI50 (U-87 MG): 260 nM
EC50 (MCF7 [5]): 74 nM
GI50 (RXF 393): 124 nM
GI50 (PC-3): 118 nM
GI50 (HCT-116): 40 nM
GI50 (OVCAR-8): 240 nM
GI50 (HL-60(TB)): 53 nM
GI50 (OVCAR-3): 47 nM
GI50 (HCC 2998): 1010 nM
GI50 (HOP-92): 96 nM
GI50 (Malme-3M): 77 nM
GI50 (A549 [6]): 61 nM
GI50 (SNB-19): 370 nM
GI50 (M14): 44 nM
GI50 (U-251): 113 nM
GI50 (DU-145): 305 nM
GI50 (LOX IMVI): 121 nM
GI50 (HPAC): 154 nM
GI50 (CCRF-CEM): 199 nM
GI50 (NCI-H1975): 271 nM
GI50 (VCaP): 246 nM
GI50 (K562): 46 nM
GI50 (MFE-280): > 10000 nM
GI50 (SW480): 46 nM
GI50 (SN12C): 155 nM
GI50 (AN3-CA): 53 nM
GI50 (HEC-1-A): 178 nM
GI50 (MFE-296): 26 nM
GI50 (COLO 205): 47 nM
GI50 (SK-MEL-5): 43 nM
GI50 (MOLT-4): 297 nM
inhibition at 1 µM (MDCK-II): 238%
GI50 (T47D): > 10000 nM
GI50 (HT-29): 38 nM
GI50 (MCF7 [7]): 37 nM
GI50 (CAKI-1): 91 nM
GI50 (NCI-H226): 613 nM
GI50 (RL95-2): 86 nM
GI50 (HepG2): 94 nM
GI50 (HCT-15): 45 nM
GI50 (LNCaP): 361 nM
GI50 (SF-268): 1020 nM
GI50 (TK-10): 317 nM
GI50 (CWR22R): 150 nM
GI50 (OVCAR-5): 605 nM
GI50 (SF-295): 86 nM
